In patent US12091411B2, “IRAK degraders and uses thereof” (Kymera Therapeutics, Inc., priority 2022, dated 2024):
Where two headings read alike, the source gives them in different places.

Biological target: T1, IRAK4 (Homo sapiens, UniProt Q9NWZ3)
T1 construct: Degradation of IRAK4 in OCI-LY10 was quantitatively measured using Meso Scale Discovery technology; endogenous in cells; host or cells: OCI-LY10
T1 sequence (Q9NWZ3 1-460): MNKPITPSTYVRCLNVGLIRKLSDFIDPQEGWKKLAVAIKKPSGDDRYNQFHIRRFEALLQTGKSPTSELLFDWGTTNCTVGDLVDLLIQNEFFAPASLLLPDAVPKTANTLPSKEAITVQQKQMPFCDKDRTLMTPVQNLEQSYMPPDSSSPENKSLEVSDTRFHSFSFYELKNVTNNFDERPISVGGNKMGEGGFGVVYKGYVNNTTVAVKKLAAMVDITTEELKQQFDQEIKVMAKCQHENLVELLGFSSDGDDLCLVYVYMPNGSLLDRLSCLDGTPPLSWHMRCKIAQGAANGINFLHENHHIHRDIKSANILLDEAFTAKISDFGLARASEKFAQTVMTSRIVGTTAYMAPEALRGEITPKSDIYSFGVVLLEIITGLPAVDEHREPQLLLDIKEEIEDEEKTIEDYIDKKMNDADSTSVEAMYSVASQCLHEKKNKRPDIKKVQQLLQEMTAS
Test: IRAK4 MSD Degradation in OCI-LY10
Assay type: cell-based
Settings: OCI-LY10 cells, MSD
Outline: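 DC50, from a three-parameter logistic fit and reported as letter bins A (<0.01 μM), B, C, D (>0.2 μM or not tested), reflects IRAK4 loss measured by MSD electrochemiluminescence in OCI-LY10 lysates. Treatment: 8 doses, 1:3 steps, top 1 to 10 μM, 4 to 24 h, 37 °C.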

[1] = 4 hrs incubation, read-out: IRAK4 degradation in OCI-LY10 at 4 hrs: DC50
[2] = 24 hrs incubation, read-out: IRAK4 degradation in OCI-LY10 at 24 hrs: DC50

Row | Structure (SMILES) | DC50 [1] [nM] | DC50 [2] [nM]
1 | Cn1c(=O)n(C2CCC(=O)NC2=O)c2cccc(C#CCOC3CCN(C[C@H]4CC[C@H](n5cc(NC(=O)c6cnn7ccc(N8CC9(CCOCC9)C8)nc67)c(C(F)F)n5)CC4)CC3)c21 (some centres unmarked) [I-326] | 10 to 100 | > 200
2 | Cn1c(=O)n(C2CCC(=O)NC2=O)c2cccc(C3CCN(C[C@H]4CC[C@H](n5cc6cc(NC(=O)c7cccc(C(F)(F)F)n7)ccc6n5)CC4)CC3O)c21 (some centres unmarked) [I-460] | > 200 | > 200
3 | Cn1c(=O)n(C2CCC(=O)NC2=O)c2cccc(C#CCOC3CCN(C[C@H]4CC[C@H](n5cc(NC(=O)c6cnn7ccc(N8CCC9(COC9)C8)nc67)c(C(F)F)n5)CC4)CC3)c21 (some centres unmarked) [I-330] | > 200 | > 200
4 | Cn1c(=O)n(C2CCC(=O)NC2=O)c2cccc(C3CCN(C[C@H]4CC[C@H](n5cc6cc(NC(=O)c7cccc(C(F)F)n7)c(C(C)(C)O)cc6n5)CC4)C[C@@H]3F)c21 (some centres unmarked) [I-652] | > 200 | > 200
5 | Cn1c(=O)n(C2CCC(=O)NC2=O)c2cccc(C#CCN3CCN(C[C@H]4CC[C@H](n5cc(NC(=O)c6cnn7ccc(N8CCN(C(F)(F)F)CC8)nc67)c(C(F)F)n5)CC4)CC3)c21 (some centres unmarked) [I-408] | > 200 | > 200
6 | CN(C[C@H]1CC[C@H](n2cc(NC(=O)c3cnn4ccc(N5CCO[C@H](C(F)(F)F)C5)nc34)c(C(F)F)n2)CC1)C1CCN(c2cccc3c2n(C)c(=O)n3C2CCC(=O)NC2=O)CC1(F)F (some centres unmarked) [I-538] | > 200 | > 200
7 | Cn1c(=O)n(C2CCC(=O)NC2=O)c2cccc(C#CC3CN(C[C@H]4CC[C@H](n5cc(NC(=O)c6cnn7ccc(N8C[C@H]9C[C@@H]8CO9)nc67)c(C(F)F)n5)CC4)CCO3)c21 (some centres unmarked) [I-27] | 10 to 100 | > 200
8 | Cn1c(=O)n(C2CCC(=O)NC2=O)c2cccc(C#CC[C@@H]3CN(Cc4ccc(-n5cc(NC(=O)c6cnn7ccc(N8C[C@H]9C[C@@H]8CO9)nc67)c(C(F)F)n5)cc4)CCO3)c21 (some centres unmarked) [I-390] | > 200 | > 200
9 | Cn1c(=O)n(C2CCC(=O)NC2=O)c2cccc(C#CCN3CCN(C[C@H]4CC[C@H](n5cc(NC(=O)c6cnn7ccc(N8CCC9(CCOC9)C8)nc67)c(C(F)F)n5)CC4)CC3)c21 (some centres unmarked) [I-321] | > 200 | < 10
10 | Cn1c(=O)n(C2CCC(=O)NC2=O)c2cccc(C3CCN(C[C@]4(O)CC[C@@H](n5cc6cc(NC(=O)c7cccc(C(F)(F)F)n7)ccc6n5)CC4)CC3)c21 (some centres unmarked) [I-711] | > 200 | < 10
11 | Cn1c(=O)n(C2CCC(=O)NC2=O)c2cccc(CC[C@@H]3CN(C[C@H]4CC[C@H](n5cc(NC(=O)c6cnn7cccnc67)c(C(F)F)n5)CC4)CCO3)c21 (some centres unmarked) [I-397] | > 200 | > 200
12 | Cn1c(=O)n(C2CCC(=O)NC2=O)c2cccc(C3CC(OC4CCN(C[C@H]5CC[C@H](n6cc(NC(=O)c7cnn8ccc(N9C[C@H]%10C[C@@H]9CO%10)nc78)c(C(F)F)n6)CC5)CC4)C3)c21 (some centres unmarked) [I-68] | < 10 | > 200
13 | Cn1c(=O)n(C2CCC(=O)NC2=O)c2cccc([C@H]3CCN(C[C@H]4CC[C@H](n5cc6cc(NC(=O)c7cccc(C#N)n7)ncc6n5)CC4)C[C@@H]3F)c21 (some centres unmarked) [I-638] | > 200 | < 10
14 | COc1cc2nn([C@H]3CC[C@H](CN4CCC5(CC4)CCN(c4cccc6c4n(C)c(=O)n6C4CCC(=O)NC4=O)CC5)CC3)cc2cc1NC(=O)c1cncc(C)c1 (some centres unmarked) [I-89] | > 200 | > 200
15 | Cn1c(=O)n(C2CCC(=O)NC2=O)c2cccc(C#CCN3CCN(C[C@H]4CC[C@H](n5cc(NC(=O)c6cnn7ccc(N8CC[C@@]9(CCOC9)C8)nc67)c(C(F)F)n5)CC4)CC3)c21 (some centres unmarked) [I-419] | 10 to 100 | > 200
16 | Cn1c(=O)n(C2CCC(=O)NC2=O)c2cccc(C3CCN(C[C@H]4CC[C@H](n5cc6cc(NC(=O)c7cccc(C(F)(F)F)n7)c(Cl)cc6n5)CC4)CC3(F)F)c21 (some centres unmarked) [I-450] | > 200 | > 200
17 | COc1cc2nn([C@H]3CC[C@H](CN(C)C4CCN(c5cccc6c5n(C)c(=O)n6C5CCC(=O)NC5=O)CC4F)CC3)cc2cc1NC(=O)c1cccc(C(F)(F)F)n1 (some centres unmarked) [I-556] | > 200 | > 200
18 | Cn1c(=O)n(C2CCC(=O)NC2=O)c2cccc(C#CCN3CC4CC(C3)N4C[C@H]3CC[C@H](n4cc(NC(=O)c5cnn6ccc(N7C[C@H]8C[C@@H]7CO8)nc56)c(C(F)F)n4)CC3)c21 (some centres unmarked) [I-344] | > 200 | > 200
19 | Cn1c(=O)n(C2CCC(=O)NC2=O)c2cccc(N3CCC(CN4CCN(C[C@H]5CC[C@H](n6cc(NC(=O)c7cnn8ccc(N9C[C@@H]%10C[C@H]9CO%10)nc78)c(C(F)F)n6)CC5)CC4)CC3)c21 (some centres unmarked) [I-158] | < 10 | > 200

Row | Structure (SMILES) | DC50 [1] [nM] | DC50 [2] [nM]
20 | CN(C[C@H]1CC[C@H](n2cc(NC(=O)c3cnn4ccc(N5CCC(F)(F)CC5)nc34)c(C(F)F)n2)CC1)C1CCN(c2cccc3c2n(C)c(=O)n3C2CCC(=O)NC2=O)CC1(F)F (some centres unmarked) [I-519] | > 200 | > 200
21 | CN(C[C@H]1CC[C@H](n2cc(NC(=O)c3cnn4cccnc34)c(C(F)F)n2)CC1)c1ccc(-c2cccc3c2n(C)c(=O)n3C2CCC(=O)NC2=O)cc1 (some centres unmarked) [I-378] | > 200 | > 200
22 | Cn1c(=O)n(C2CCC(=O)NC2=O)c2cccc(C3CN(C4CCN([C@H]5CC[C@H](n6cc(NC(=O)c7cnn8ccc(N9C[C@H]%10C[C@@H]9CO%10)nc78)c(C(F)F)n6)CC5)CC4(F)F)C3)c21 (single isomer, unassigned) [I-736] | > 200 | < 10
23 | Cn1c(=O)n(C2CCC(=O)NC2=O)c2cccc(N3CCN([C@H]4CC[C@H](n5cc(NC(=O)c6cnn7ccc(N8C[C@H]9C[C@@H]8CO9)nc67)c(C(F)F)n5)CC4)CC3)c21 (some centres unmarked) [I-200] | 10 to 100 | > 200
24 | COc1cc2nn([C@H]3CC[C@H](CN4CCC5(CC4)CCN(c4c(C)ccc6c4n(C)c(=O)n6C4CCC(=O)NC4=O)CC5)CC3)cc2cc1NC(=O)c1cncc(C#N)c1 (some centres unmarked) [I-84] | > 200 | > 200
25 | O=C1CCC(c2ccc(N3CC(CN4CCN(C[C@H]5CC[C@H](n6cc(NC(=O)c7cnn8ccc(N9C[C@H]%10C[C@@H]9CO%10)nc78)c(C(F)F)n6)CC5)CC4)C3)cc2Cl)C(=O)N1 (some centres unmarked) [I-778] | > 200 | > 200
26 | CN(C[C@H]1CC[C@H](n2cc(NC(=O)c3cnn4ccc(N5CCCOCC5)nc34)c(C(F)F)n2)CC1)C1CCN(c2cccc3c2n(C)c(=O)n3C2CCC(=O)NC2=O)CC1(F)F (some centres unmarked) [I-544] | > 200 | 10 to 100
27 | Cn1c(=O)n(C2CCC(=O)NC2=O)c2cccc([C@@H]3CCN(C[C@H]4CC[C@H](n5cc6cc(NC(=O)c7cccc(C(F)F)n7)c(C(C)(C)O)cc6n5)CC4)C[C@H]3F)c21 (some centres unmarked) [I-653] | > 200 | < 10
28 | Cn1c(=O)n(C2CCC(=O)NC2=O)c2cccc([C@H]3C[C@H](CO[C@@H]4CCN(C[C@H]5CC[C@H](n6cc(NC(=O)c7cnn8ccc(N9C[C@H]%10C[C@@H]9CO%10)nc78)c(C(F)F)n6)CC5)C[C@@H]4F)C3)c21 (some centres unmarked) [I-722] | > 200 | < 10
29 | CC1CCN(c2ccn3ncc(C(=O)Nc4cn([C@H]5CC[C@H](CN6CCN(CC#Cc7cccc8c7n(C)c(=O)n8C7CCC(=O)NC7=O)CC6)CC5)nc4C(F)F)c3n2)CC1 (some centres unmarked) [I-282] | > 200 | 10 to 100
30 | Cn1c(=O)n(C2CCC(=O)NC2=O)c2cccc(C#CCN3CCN(C[C@H]4CC[C@H](n5cc(NC(=O)c6cnn7ccc(N8C[C@H]9CC[C@@H](C8)O9)nc67)c(C(F)F)n5)CC4)CC3)c21 (some centres unmarked) [I-290] | > 200 | < 10
31 | COc1nc([C@H]2CC[C@H](CN3CCC(OCC#Cc4cccc5c4n(C)c(=O)n5C4CCC(=O)NC4=O)CC3)CC2)ccc1NC(=O)c1cnn2ccc(N3C[C@H]4C[C@@H]3CO4)nc12 (some centres unmarked) [I-183] | > 200 | > 200
32 | CN1C(=O)CCC(n2c(=O)n(C)c3c(C#CCN4CCN(C[C@H]5CC[C@H](n6cc(NC(=O)c7cnn8ccc(N9C[C@H]%10C[C@@H]9CO%10)nc78)c(C(F)F)n6)CC5)CC4)cccc32)C1=O (some centres unmarked) [I-43] | > 200 | > 200
33 | Cn1c(=O)n(C2CCC(=O)NC2=O)c2cccc(CN3CC4(CCN(Cc5ccc(-n6cc(NC(=O)c7cnn8ccc(N9C[C@H]%10C[C@@H]9CO%10)nc78)c(C(F)F)n6)cc5)CC4)C3)c21 (some centres unmarked) [I-702] | > 200 | 10 to 100
34 | C[C@H]1CN(C[C@H]2CC[C@H](n3cc(NC(=O)c4cnn5ccc(N6C[C@H]7C[C@@H]6CO7)nc45)c(C(F)F)n3)CC2)CC[C@@H]1OCC#Cc1cccc2c1n(C)c(=O)n2C1CCC(=O)NC1=O (some centres unmarked) [I-37] | < 10 | < 10
35 | Cn1c(=O)n(C2CCC(=O)NC2=O)c2cccc(CC[C@H]3CN(Cc4ccc(-n5cc(NC(=O)c6cnn7ccc(N8C[C@H]9C[C@@H]8CO9)nc67)c(C(F)F)n5)cc4)CCO3)c21 (some centres unmarked) [I-386] | > 200 | > 200
36 | Cn1c(=O)n(C2CCC(=O)NC2=O)c2cccc(C#CCN3CCN(C[C@H]4CC[C@H](n5cc(NC(=O)c6cnn7ccc(OC8CCCC8)nc67)c(C(F)F)n5)CC4)CC3)c21 (some centres unmarked) [I-245] | > 200 | 10 to 100
37 | Cn1c(=O)n(C2CCC(=O)NC2=O)c2cccc(C#CCO[C@@H]3CCN(C[C@H]4CC[C@H](n5cc(NC(=O)c6cnn7ccc(N8C[C@H]9C[C@@H]8CO9)nc67)c(C(F)F)n5)CC4)C3)c21 (some centres unmarked) [I-24] | 10 to 100 | > 200
